In paper PMC9134235 (ACS Omega, 2022):

What was measured:
[1] = molecular target: DOR (Homo sapiens, UniProt P41143); test: DOR-Tango β-arrestin2 recruitment, dose–response; assay type: cell-based; details: for agonist / allosteric activity at DOR: 10 μM modulator, in the presence or absence of DADLE; for reversal of the agonist activity of EIPA: 10 μM EIPA, increasing antagonist; for effect of extracellular Na+ on agonistic activity: reducing extracellular Na+ to 30 mM
[2] = system: different GPCRs; details: cited from earlier work
[3] = system: cells; test: Toxicity to cells; assay type: cell-based, human; details: at 10 μM
[4] = molecular target: DOR D95A2.50 (Homo sapiens, UniProt P41143, D95A); test: Mutant DOR-Tango β-arrestin2 recruitment; assay type: cell-based; details: 10 μM modulator
Sequence of DOR D95A2.50 (P41143 whole entry D95A): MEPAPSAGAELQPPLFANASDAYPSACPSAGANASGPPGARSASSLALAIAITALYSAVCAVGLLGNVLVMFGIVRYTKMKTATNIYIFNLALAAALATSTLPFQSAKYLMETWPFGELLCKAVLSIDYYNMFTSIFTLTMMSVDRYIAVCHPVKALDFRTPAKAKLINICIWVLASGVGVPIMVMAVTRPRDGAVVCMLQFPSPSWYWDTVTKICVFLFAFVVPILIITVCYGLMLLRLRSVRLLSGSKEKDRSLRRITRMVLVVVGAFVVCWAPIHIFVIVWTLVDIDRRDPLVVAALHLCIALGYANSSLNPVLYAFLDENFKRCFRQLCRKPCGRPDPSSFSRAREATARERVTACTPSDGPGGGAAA

[5] = molecular target: DOR chimera KOR-TM1 (Homo sapiens, UniProt P41143+P41145, A58V/A61V/C60F/G73V/L55V/L65V/V68S/V75I); test: Chimera DOR-Tango β-arrestin2 recruitment; assay type: cell-based; details: 10 μM modulator
[6] = system: mouse delta-opioid; details: ref Tracey et al.[45]; cited from earlier work
[7] = system: rat mu-opioid; details: ref Tracey et al.[45]; cited from earlier work
[8] = molecular target: DOR S135A3.39 (Homo sapiens, UniProt P41143, S135A); test: Mutant DOR-Tango β-arrestin2 recruitment; assay type: cell-based; details: 10 μM
Sequence of DOR S135A3.39 (P41143 whole entry S135A, one chain of several): as the sequence (P41143 whole entry D95A) above, with A95D, S135A counted along it

[9] = molecular target: DOR N131V3.35 (Homo sapiens, UniProt P41143, N131V); test: Mutant DOR-Tango β-arrestin2 recruitment; assay type: cell-based; details: 10 μM
Sequence of DOR N131V3.35 (P41143 whole entry N131V, one chain of several): as the sequence (P41143 whole entry D95A) above, with A95D, N131V counted along it

[10] = system: kappa-opioid receptor; details: ref Tracey et al.[45]; cited from earlier work
[11] = system: gonadotropin-releasing hormone receptor (GnRHR); details: 10 μM; cited from earlier work
[12] = molecular target: DOR WT (Homo sapiens, UniProt P41143); test: 3H-DADLE competition binding; details: binding experiment in allosteric mode
Sequence of DOR WT (P41143 whole entry): as the sequence (P41143 whole entry D95A) above, with A95D counted along it

[13] = molecular target: T1, M4 muscarinic receptor (Homo sapiens, UniProt P08173); test: M4-Tango β-arrestin2 recruitment, carbachol dose–response; assay type: cell-based; details: external Na+ increased to 200 mM
T1 sequence (P08173 1-479): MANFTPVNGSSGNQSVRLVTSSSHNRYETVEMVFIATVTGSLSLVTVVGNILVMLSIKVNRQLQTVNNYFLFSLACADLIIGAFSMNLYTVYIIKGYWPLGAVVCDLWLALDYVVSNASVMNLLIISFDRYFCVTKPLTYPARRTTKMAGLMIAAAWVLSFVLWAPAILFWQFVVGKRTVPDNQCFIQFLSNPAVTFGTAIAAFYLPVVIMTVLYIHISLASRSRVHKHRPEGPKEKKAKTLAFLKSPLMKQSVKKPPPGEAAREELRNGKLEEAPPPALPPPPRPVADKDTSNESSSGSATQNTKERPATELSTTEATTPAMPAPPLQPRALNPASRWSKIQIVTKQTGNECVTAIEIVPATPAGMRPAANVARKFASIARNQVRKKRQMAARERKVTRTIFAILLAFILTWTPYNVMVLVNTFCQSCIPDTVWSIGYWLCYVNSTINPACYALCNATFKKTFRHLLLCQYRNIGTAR

[14] = molecular target: T2, M2 muscarinic receptor (Homo sapiens, UniProt P08172); test: M2-Tango β-arrestin2 recruitment, carbachol dose–response; assay type: cell-based; details: external Na+ increased to 200 mM
T2 sequence (P08172 1-466): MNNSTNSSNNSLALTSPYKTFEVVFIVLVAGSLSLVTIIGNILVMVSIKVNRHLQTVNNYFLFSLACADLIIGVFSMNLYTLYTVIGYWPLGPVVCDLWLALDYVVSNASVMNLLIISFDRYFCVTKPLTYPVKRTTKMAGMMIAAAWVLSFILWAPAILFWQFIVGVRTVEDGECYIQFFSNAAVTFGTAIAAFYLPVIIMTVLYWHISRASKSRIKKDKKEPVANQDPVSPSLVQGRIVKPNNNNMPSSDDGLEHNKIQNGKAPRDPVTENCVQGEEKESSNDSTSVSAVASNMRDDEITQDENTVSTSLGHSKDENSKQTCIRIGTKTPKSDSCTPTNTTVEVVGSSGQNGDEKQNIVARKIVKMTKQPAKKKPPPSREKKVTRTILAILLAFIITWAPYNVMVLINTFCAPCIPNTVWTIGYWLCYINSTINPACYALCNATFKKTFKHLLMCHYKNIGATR

[15] = molecular target: T3, M5 muscarinic receptor (Homo sapiens, UniProt P08912); test: M5-Tango β-arrestin2 recruitment, carbachol dose–response; assay type: cell-based; details: external Na+ increased to 200 mM
T3 sequence (P08912 1-532): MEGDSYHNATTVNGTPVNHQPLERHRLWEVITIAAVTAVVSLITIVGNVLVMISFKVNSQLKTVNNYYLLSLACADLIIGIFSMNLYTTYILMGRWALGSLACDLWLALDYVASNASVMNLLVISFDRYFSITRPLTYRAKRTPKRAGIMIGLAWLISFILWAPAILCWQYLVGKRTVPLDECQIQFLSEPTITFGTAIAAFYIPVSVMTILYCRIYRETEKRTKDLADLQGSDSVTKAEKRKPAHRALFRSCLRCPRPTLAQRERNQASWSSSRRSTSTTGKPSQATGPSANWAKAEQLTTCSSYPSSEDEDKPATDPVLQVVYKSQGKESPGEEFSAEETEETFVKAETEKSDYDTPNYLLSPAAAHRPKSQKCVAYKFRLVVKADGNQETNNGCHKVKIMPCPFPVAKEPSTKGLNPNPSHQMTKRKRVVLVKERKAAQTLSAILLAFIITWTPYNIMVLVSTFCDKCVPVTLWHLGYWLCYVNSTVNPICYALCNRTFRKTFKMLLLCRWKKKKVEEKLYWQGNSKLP

Sequence of DOR (P41143 whole entry): as the sequence (P41143 whole entry D95A) above, with A95D counted along it

## NC(=Nc1ccccc1)NC(=O)c1nc(Cl)c(N)nc1N [Phenamil, phenamil]
[1]
  agonist / allosteric activity at DOR: inactive

## CN(C)c1nc(N)c(C(=O)NC(=N)N)nc1Cl [DMA, 5-(N,N-dimethyl)amiloride]
[1]
  agonist / allosteric activity at DOR: lack of DMA activity

## N=C(N)NC(=O)c1nc(Cl)c(N)nc1N [Amiloride, amiloride]
[1]
  agonist / allosteric activity at DOR: no activity
[2]; allosteric modulation on different GPCRs
  affinity: > 10 µM
[2]; most biophysical studies using amiloride
  concentration with activity in biophysical studies: > 100 µM

## N=C(N)NC(=O)c1cnn(-c2cccc3ncccc23)c1C1CC1 [Zoniporide, zoniporide]
[1]
  agonist / allosteric activity at DOR: best PAM without intrinsic agonist activity
[3]
  toxicity: no toxicity
[4]
  modulator properties at mutant: almost complete loss of original properties
[5]
  allosteric modulation (PAM) at chimera: loss of allosteric modulation (PAM)
[6]
  affinity: 238 nM
[7]
  affinity: 60 nM
[8]
  ago-PAM properties at mutant: increase in the ago-PAM properties
[9]
  ago-PAM properties at mutant: increase in the ago-PAM properties
[10]
  interaction: no detectable interaction

## Oc1ccc2c3c1O[C@H]1c4[nH]c5ccccc5c4C[C@@]4(O)[C@@H](C2)N(CC2CC2)CC[C@]314 [Naltrindole, naltrindole]
[1]
  reversal of the agonist activity of EIPA: reversed

## NC(N)=NC(=O)c1nc(Cl)c(N2CCCCCC2)nc1N [HMA, 5-(N,N-hexamethylene)amiloride]
[1]
  effect of extracellular Na+ on agonistic activity: slightly increases
[11]
  functional effect: modest effect
[4]
  modulator properties at mutant: almost complete loss of original properties
[5]
  allosteric modulation (PAM) at chimera: loss of allosteric modulation (PAM)

## CC(C)CN(C)c1nc(N)c(C(=O)N=C(N)N)nc1Cl [MIA, 5-(N-methyl-N-isobutyl)amiloride]
[1]
  agonist / allosteric activity at DOR: best ago-PAM
  effect of extracellular Na+ on agonistic activity: slightly increases
[12]
  effect on the Ki of naltrindole toward 3H-DADLE: no effect
[4]
  modulator properties at mutant: almost complete loss of original properties
[5]
  allosteric modulation (PAM) at chimera: loss of allosteric modulation (PAM)

## NC(N)=Nc1ccc2c3c([nH]c2c1)[C@@H]1Oc2c(O)ccc4c2[C@@]12CCN(CC1CC1)[C@H](C4)[C@]2(O)C3 [6′-GNTI]
[1]
  reversal of the agonist activity of EIPA: reversed

## C[N+](C)(C)CCOC(N)=O [carbachol]
[13]
  increase of efficacy: more than 3 fold
[14]
  increase of efficacy: more than 3 fold
[15]
  increase of efficacy: weakly increasing efficacy

## NC(N)=Nc1ccc2[nH]c3c(c2c1)C[C@@]1(O)[C@H]2Cc4ccc(O)c5c4[C@@]1(CCN2CC1CC1)[C@H]3O5 [5′-GNTI]
[1]
  reversal of the agonist activity of EIPA: reversed

## CCN(c1nc(N)c(C(=O)N=C(N)N)nc1Cl)C(C)C [EIPA, 5-(N-ethyl-N-isopropyl)-amiloride]
[1]
  agonist / allosteric activity at DOR: significant agonist and positive allosteric modulation (ago-PAM)
